What all share (assay type): cell-based
Assay [1] concerns H1975 (KRAS wild type human lung adenocarcinoma cell line). The assay is described as follows: KRAS 3D-Cell Proliferation Assay, H1975 (Example 503). Conditions: Homo sapiens, NCI-H1975, 168 h, H1975 3D culture, 7 days, CellTiter-Glo 3D; read-out: Prolif H1975 3D ATP IC50. The gist of the method: (§1)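 IC50 values derive from 4-parameter Hill fits of normalized luminescence, where DMSO sets 0% and 1 μM staurosporine 100% inhibition. 3D cultures in RPMI-1640 with 10% fetal bovine serum were exposed to compound for 7 days before CellTiter-Glo 3D lysis.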
For orientation: ATP-based viability assays read luminescence as a measure of living cells.

Assay [2] deals with AsPC-1 (homozygous mutant KRAS G12D human pancreatic cell line). The assay is described as follows: KRAS 3D-Cell Proliferation Assay, AsPC-1 (Example 503). Conditions: Homo sapiens, ASPC1, 168 h, AsPC-1 3D culture, 7 days, CellTiter-Glo 3D; read-out: Prolif AsPC-1 3D ATP IC50. In outline: as §1
For assay [3], the system named is HPAC (homozygous mutant KRAS G12D human pancreatic cell line). The assay is described as follows: KRAS 3D-Cell Proliferation Assay, HPAC (Example 503). Conditions: Homo sapiens, HPAC, 168 h, HPAC 3D culture, 7 days, CellTiter-Glo 3D; read-out: Prolif HPAC 3D ATP IC50. The gist of the method: as §1

On to `C[C@@H]1Oc2nc(-c3cc(N)cc(F)c3C(F)(F)F)c(F)c3nc(OC[C@@H]4CC[C@H]5COCCN54)nc(c23)N2C[C@H]3CC[C@H](N3)[C@@H]12` [Compound 77, 3-Fluoro-5-((5S,5aS,6S,9R)-1-fluoro-12-(((6S,8aS)-hexahydro-1H-pyrrolo[2,1-c][1,4]oxazin-6-yl)methoxy)-5-methyl-5a,6,7,8,9,10-hexahydro-5H-4-oxa-3,10a,11,13,14-pentaaza-6,9-methanonaphtho[1,8-ab]heptalen-2-yl)-4-(trifluoromethyl)aniline], for which the concentration for half-maximal inhibition (IC50) in assay [1] is 358 nM; in assay [2], 11.9 nM; in assay [3] it was 2.79 nM.
As for `Cc1nc(N)cc(-c2nc3c4c(nc(OCC5(CN6CCOCC6)CC5)nc4c2F)N2C[C@H]4CC[C@H](N4)[C@H]2[C@H](C)O3)c1C(F)(F)F` [Compound 210, 4-((5S,5aS,6S,9R)-1-Fluoro-5-methyl-12-((1-(morpholinomethyl)cyclopropyl)methoxy)-5a,6,7,8,9,10-hexahydro-5H-4-oxa-3,10a,11,13,14-pentaaza-6,9-methanonaphtho[1,8-ab]heptalene-2-yl)-6-methyl-5-(trifluoromethyl)pyridin-2-amine], the IC50 in assay [1] stood at 868 nM; in assay [2], 3.6 nM; in assay [3] it was 1.81 nM.
Regarding `Cc1nc(N)cc(-c2nc3c4c(nc(OC[C@@]56CCCN5CC5(CC5(F)F)C6)nc4c2F)N2C[C@H]4CC[C@H](N4)[C@H]2[C@H](C(F)(F)F)O3)c1C(F)(F)F` (stereo partly drawn) [Compound 254, 4-((5R,5aS,6S,9R)-12-(((7a′S)-2,2-Difluorodihydro-1′H,3′H-spiro[cyclopropane-1,2′-pyrrolizin]-7a′(5′H)-yl)methoxy)-1-fluoro-5-(trifluoromethyl)-5a,6,7,8,9,10-hexahydro-5H-4-oxa-3,10a,11,13,14-pentaaza[6,9]methanonaphtho[1,8-ab]heptalene-2-yl)-6-methyl-5-(trifluoromethyl)pyridin-2-amine], the values for the IC50 in assay [1], in assay [2] and in assay [3] were 139 nM, 2.5 nM and 1.86 nM, respectively.
For `Cc1nc(N)cc(-c2nc3c4c(nc(OCC56CCN5CC(F)(F)C6)nc4c2F)N2C[C@H]4CC[C@H](N4)[C@H]2[C@H](C)O3)c1C(F)(F)F` (stereo partly drawn) [Compound 214, 4-((5S,5aS,6S,9R)-12-((3,3-Difluoro-1-azabicyclo[3.2.0]heptan-5-yl)methoxy)-1-fluoro-5-methyl-5°,6,7,8,9,10-hexahydro-5H-4-oxa-3,10°,11,13,14-pentaaza-6,9-methanonaphtho[1,8-ab]heptalen-2-yl)-6-methyl-5-(trifluoromethyl)pyridin-2-amine], the IC50 was determined as 7030 nM in assay [1], 25.4 nM in assay [2] and 8.04 nM in assay [3].
Take `Cc1c(F)c(N)c(F)c(-c2nc3c4c(nc(OC[C@@]56CCCN5C[C@H](F)C6)nc4c2F)N2C[C@H]4CC[C@H](N4)[C@H]2[C@H](C)O3)c1C(F)(F)F` [Compound 91, 2,6-Difluoro-3-((5S,5aS,6S,9R)-1-fluoro-12-(((2R,7aS)-2-fluorotetrahydro-1H-pyrrolizin-7a(5H)-yl)methoxy)-5-methyl-5a,6,7,8,9,10-hexahydro-5H-4-oxa-3,10a,11,13,14-pentaaza-6,9-methanonaphtho[1,8-ab]heptalen-2-yl)-5-methyl-4-(trifluoromethyl)aniline]: the IC50 is 953 nM in assay [1], 1.3 nM in assay [2] and 1.25 nM in assay [3].
As to `Cc1c(F)c(N)cc(-c2nc3c4c(nc(OCC5(CN6C[C@H]7C[C@@H]6CO7)CC5)nc4c2F)N2C[C@H]4CC[C@H](N4)[C@H]2[C@H](C)O3)c1C(F)(F)F` [Compound 170, 5-((5S,5aS,6S,9R)-12-((1-(((1R,4R)-2-Oxa-5-azabicyclo[2.2.1]heptan-5-yl)methyl)cyclopropyl)methoxy)-1-fluoro-5-methyl-5a,6,7,8,9,10-hexahydro-5H-4-oxa-3,10a,11,13,14-pentaaza-6,9-methanonaphtho[1,8-ab]heptalene-2-yl)-2-fluoro-3-methyl-4-(trifluoromethyl)aniline], the results for the IC50 in assay [1], in assay [2] and in assay [3] were 506 nM, 0.8 nM and 0.92 nM, respectively.

One may read the IC50 as the concentration at which inhibition is half-maximal.
